The source of these data is EP0958820A1, “Use of an imidazol derivative for the manufacture of a medicament for treating auto-immunodiseases” (Sanofi-Synthélabo, priority 1998, dated 1999).

What all share (format): cell-based
For test [1], the system named is TNF-α production from mouse BMMC. As to the kind of experiment: Antigen-induced TNF-α production from mouse BMMC (ELISA). The note with it: 4 hours after antigen. On the procedure: (§1) • 1. Test drugs Mizolastine and terfenadine used were synthesised according to well known method in the art. Ketotifen fumarate (hereinafter 'ketotifen') was obtained from Toa Boshoku and dexamethasone from Sigma. • 2. Animals […] female mice and Balb/c female mice were used. • 3. Preparation of bone marrow-derived mast cells (hereinafter 'BMMC') Mouse BMMC were prepared in accordance with the method of Saito et al. J. Immunol. 138: 3927-3934, 1987. That is to say, femoral bone marrow cells from female CBA/J mice were suspended to concentrations of 2-5 x 10^5/ml in RPMI 1640 medium to which 50% of WEHI-3 culture supernatant had been added (containing 10% FBS, 5 x 10^-5M 2-mercaptoethanol, 50IU/ml penicillin, […] streptomycin). • 4. Production of IL-4 and TNF-α from mouse BMMC A 1/250 volume of anti-mouse DNP-IgE monoclonal antibody (Seikagaku Kogyo, […]) was added to mouse BMMC (2 x 10^6 cells/ml) and they were further sensitised by being incubated overnight. The sensitised BMMC were washed three times with RPMI 1640 medium, then suspended in RPMI 1640 medium to which 50% of WEHI-3 culture supernatant had been added to give 1.25 x 10^6 cells/ml (IL-4) or 3.75 x 10^6 cells/ml (TNF-α ). Having added 40 µl of a test drug solution prepared as a ten-fold dilution to 320 µl/well of the cell suspension and treated the cells for 30 minutes to one hour at 37°C in 5% CO2, antigen stimulation was applied adding 40 µl of a solution of dinitrophenyl human serum albumin (Sigma; hereinafter 'DNP-HSA'; 300ng/ml) (reaction solution 400 µl/well/48 well plate, final cell concentration 1∼3 x 10^6 cells/ml, final antigen concentration 30ng/ml). The level of the cytokine in the supernatant fluid from the culture was assayed by ELISA 18 hours (IL-4) or 4 hours (TNF-α ) following stimulation with the antigen. • 5. […] The level of TNF-α in the culture supernatant fluid was determined by ELISA 18 hours after stimulating with okadaic acid. • 6. […]
In general terms: An ELISA detects its analyte on a solid surface through an enzyme-linked reagent.

Test [2] relates to IL-4 production from mouse BMMC. As to the kind of experiment: Antigen-induced IL-4 production from mouse BMMC (ELISA). On the procedure: as §1
In test [3] the test system is TNF-α production from mouse macrophages. Briefly: Okadaic acid-induced TNF-α production from mouse peritoneal macrophages (ELISA). The note with it: Macrophage, okadaic acid 0.2 µM, 18 hours. On the procedure: as §1, with “).” for “). Having added 40 µl of a test drug solution prepared as a ten-fold dilution to 320 µl/well of the cell suspension and treated the cells for 30 minutes to one hour at 37°C in 5% CO2, antigen stimulation was applied adding 40 µl of a solution of dinitrophenyl human serum albumin (Sigma; hereinafter 'DNP-HSA'; 300ng/ml) (reaction solution 400 µl/well/48 well plate, final cell concentration 1∼3 x 10^6 cells/ml, final antigen concentration 30ng/ml). The level of the cytokine in the supernatant fluid from the culture was assayed by ELISA 18 hours (IL-4) or 4 hours (TNF-α ) following stimulation with the antigen. • 5.”

Counter-ions that a name gives are not always drawn.

For the compound `C[C@@H]1C[C@H]2[C@@H]3CCC4=CC(=O)C=C[C@]4(C)[C@@]3(F)[C@@H](O)C[C@]2(C)[C@@]1(O)C(=O)CO` [Dexamethasone, dexamethasone], the inhibition at 1 µM in test [1] (Mus musculus, at 1 µM) came to 68.7%; in test [2] (Mus musculus, at 1 µM, DNP-HSA stimulated, anti-DNP-IgE sensitised BMMC, 18 hours) it was 61.6%.

On to `CN1CCC(=C2c3ccccc3CC(=O)c3sccc32)CC1` [Ketotifen, Ketotifen fumarate], for which, in test [1] (0.1∼10 µM), the “activity against TNF-α production” value is “no activity”. The inhibition at 10 µM in test [2] (Mus musculus, at 10 µM, DNP-HSA stimulated, anti-DNP-IgE sensitised BMMC, 18 hours) was 65.6%.

For the compound `CC(C)(C)c1ccc(C(O)CCCN2CCC(C(O)(c3ccccc3)c3ccccc3)CC2)cc1` (stereo not shown) [terfenadine], the “activity against TNF-α production” value in test [1] (0.01∼1 µM) is recorded as “no activity”. The compound further registered an inhibition at 1 µM in test [3] of 24.6%. In addition, the “activity on IL-4 production” value in test [2] (concentrations of 0.01∼1 µM) is listed as “no activity”.

In general, inhibition refers to the relative decrease from the control value, in per cent.
